These results are taken from patent US20210093531A1, “DERIVATIVES OF MENTHOL AND USES THEREOF” (Board of Trustees of Northern Illinois University, priority 2019, published 2021).

Marks after values point to notes of the source that are not given here.

Assay [1] has as its system trained panelists. The assay is described as follows: time-intensity analysis of cooling, mouthwash application. To be noted: for Iext (cooling intensity at end of evaluation): 15 minutes after expectoration. It is filed as in vivo. Here is the method: In order to evaluate the potential use of menthol glycinates as […] different food, beverage and oral hygiene products, select compounds were incorporated in different application systems. A beverage model system, a lozenge and a mouthwash application were created, and time-intensity analysis was performed using trained discrimination analysis panelists. Time-Intensity (TI) is a temporal sensory method. During TI evaluations, assessors are asked to score the intensity of perception of a single attribute over consumption of the product. Compared to single point measurements, TI analysis can characterize the onset, decline and rates thereof, of particular sensory characteristics. This analysis may reveal rich information regarding the intensity of an attribute over the time domain and identify temporal perceptual differences among samples that can greatly impact the overall profile of a product. For each sample evaluation, a temporal curve is generated, based on duplication. The temporal curves for each panelist are combined to generate a combined curve for each product that is evaluated. The following distinct parameters were calculated: Imax: peak intensity or maximum observed intensity on the whole curve; […]: time point where the reaction to the stimulus is first perceived on the curve; Tmax: time position of the peak intensity on the curve; Tplateau: protraction of maximum intensity or duration of maximum intensity; Text: time point of extinction of the perception of the stimulus, defined as the position in time after the peak intensity where the measured intensity disappears (or the end of evaluation window); Iext: intensity at time of extinction or end of evaluation; R increase: slope or rate of intensity increase between […] and Tmax; R decrease: slope or rate of intensity decrease between Tmax and Text; and Area: the total area under the time-intensity curve. The formula shown in Table 8 was employed to create a mouthwash product to evaluate […] of interest using time-Intensity analysis. [table] The following test compounds were evaluated: menthol, XI-I-60, RK-2-10, XI-I-65, DK-1-50, and XI-2-73. For time-intensity (T-I) evaluation of the cooling attributes of mouthwash products, 8 panelists were recruited (2 male, 6 female). Panelists were trained in basic taste descriptive analysis. A sweetness reference series (intensity range 2-12) was provided to be used as cross-modality reference to aid in scaling the intensity of the cooling attribute present in the mouthwash samples. Panelists evaluated samples in duplicates and all sample were presented blinded and in a randomized order using a 3-digit code. Panelist evaluated 15 ml of mouthwash at a time and were instructed to rinse for 30 seconds and expectorate. Panelists were instructed to provide cooling intensities before and after expectoration. For the time before expectoration, evaluation started upon introducing the sample and every 10 seconds thereafter. After expectoration, the evaluation continued for 15 minutes and panelists provided cooling intensity ratings at predetermined times. Due to the unique nature of this product and the interest in prolonging the cooling attribute long after consumption, an additional parameter led was evaluated among samples via ANOVA. This parameter is the cooling intensity at time of extinction or in our case the end of evaluation. Data analysis for generation of T-I statistics and ANOVA analysis to determine significant difference among samples was performed using R STUDIO.

For assay [2] the following is noted: estimated, relative to menthol; cited from earlier work.
The test system of assay [3] is trained panelists. Description: time-intensity analysis of cooling, lozenge application. It is filed as in vivo. The following applies: 4-minute window. Here is the method:
In order to evaluate the potential use of menthol glycinates as […] different food, beverage and oral hygiene products, select compounds were incorporated in different application systems. A beverage model system, a lozenge and a mouthwash application were created, and time-intensity analysis was performed using trained discrimination analysis panelists. Time-Intensity (TI) is a temporal sensory method. During TI evaluations, assessors are asked to score the intensity of perception of a single attribute over consumption of the product. Compared to single point measurements, TI analysis can characterize the onset, decline and rates thereof, of particular sensory characteristics. This analysis may reveal rich information regarding the intensity of an attribute over the time domain and identify temporal perceptual differences among samples that can greatly impact the overall profile of a product. For each sample evaluation, a temporal curve is generated, based on duplication. The temporal curves for each panelist are combined to generate a combined curve for each product that is evaluated. The following distinct parameters were calculated: Imax: peak intensity or maximum observed intensity on the whole curve; […]: time point where the reaction to the stimulus is first perceived on the curve; Tmax: time position of the peak intensity on the curve; Tplateau: protraction of maximum intensity or duration of maximum intensity; Text: time point of extinction of the perception of the stimulus, defined as the position in time after the peak intensity where the measured intensity disappears (or the end of evaluation window); Iext: intensity at time of extinction or end of evaluation; R increase: slope or rate of intensity increase between […] and Tmax; R decrease: slope or rate of intensity decrease between Tmax and Text; and Area: the total area under the time-intensity curve. The formula detailed in Table 4 was employed to create the lozenge application to evaluate menthol glycinates of interest using time-intensity analysis. [table] For time-intensity (T-I) evaluation of the cooling intensity of lozenges, 9 panelists were recruited (3 male, 6 female). Panelists were trained in basic taste descriptive analysis. A sweetness reference series (intensity range 2-12) was provided to be used as cross-modality reference to aid in scaling the intensity of the cool attribute present in the lozenge samples. Panelists evaluated samples in duplicates and all samples were presented blinded and in a randomized order using a 3-digit code. Panelists were instructed to provide cooling intensity at predetermined time points throughout an evaluation window of 4 minutes. […] Evaluations were performed with at least 4 hours between them to ensure no carry over. Data analysis for generation of T-I statistics and ANOVA analysis to determine significant difference among samples was performed using R STUDIO.

[4] abbreviates: after expectoration for 15 minutes (Table 9b).
[5] abbreviates: rinse phase 30 seconds (Table 9a).

For the compound “(1R,2S,5R)-2-Isopropyl-5-methylcyclohexyl 2-(benzyl(methyl)amino)acetate [Product 15]”, the “Iext (cooling intensity at end of evaluation)” value (from here on “Iext”) in the assay on trained panelists [1] was 0.67^a. For the same compound, in the assay with trained panelists [1] (setting [4]), the AUC is 4082.50^ac, the I max was 13.50^ab, the Rdec is listed as −0.01^b and the Tmax is recorded as 32.50^a. The Tstart with trained panelists [1] (setting [4]) is reported as 30.00^a. Also, in the assay with trained panelists [1] (setting [5]), the AUC is recorded as 179.79^a, the Rinc is listed as 0.21^a and the Tstart is listed as 10.00^a.
With `Cc1cc2ccccc2n1CCNC(=O)[C@@H]1C[C@H](C)CC[C@H]1C(C)C` [compound 1], in assay [2], the “times cooler than menthol (cooling potential)” value is listed as approximately 1000 times.
As to `CC(C)[C@@H]1CC[C@@H](C)C[C@H]1C(=O)NCCc1ccccn1` [amide 19], the “times cooler than menthol (cooling potential)” value in assay [2] is listed as “about 100 times”.
Consider `CC(C)NCC(=O)O[C@@H]1C[C@H](C)CC[C@H]1C(C)C` [Product 7, (1R,2S,5R)-2-Isopropyl-5-methylcyclohexyl 2-(isopropylamino)acetate], for which the “Iext” value in the assay with trained panelists [1] is recorded as “significantly higher cooling intensity”. Besides, the AUC result in the assay on trained panelists [1] (setting [4]) is “significantly higher”. In the assay on trained panelists [1] (setting [5]), the Imax result is on record as “trending higher” and the Rdec entry was “significantly lower R decrease”. The “Tstart (time cooling first perceived)” value with trained panelists [3] was “significantly delayed cooling onset”.
Regarding “(1R,2S,5R)-2-isopropyl-5-methylcyclohexyl 2-(cyclopropylamino)acetate [Product 12]”, in the assay on trained panelists [3], the “AUC (total area under time-intensity curve)” value is 1945.31^bc, the “RDec (rate of intensity decrease)” value is 0.042^ab, the “RInc (rate of intensity increase)” value is on record as 0.042^ab and the “Tmax (time of peak intensity)” value is 206.25^a.
Take `CC(C)[C@@H]1CC[C@@H](C)C[C@H]1OC(=O)CNC1CC1` [Product 12, (1R,2S,5R)-2-isopropyl-5-methylcyclohexyl 2-(cyclopropylamino)acetate]: the “Iext” value is given as “significantly higher cooling intensity” in the assay on trained panelists [1] (listed as XI-1-66) and 2.18^b in the assay on trained panelists [1] (listed as XI-I-65). Further, the AUC with trained panelists [1] (setting [4]) is given as 5211.25^bc; in the assay with trained panelists [1] (setting [5]), 186.88^a. Moreover, the I max with trained panelists [1] (setting [4]) is given as 13.20^ab. Moreover, the Rdec was −0.01^b in the assay on trained panelists [1] (setting [4]); “significantly lower R decrease” in the assay on trained panelists [1] (rinse phase 30 seconds (Table 9a), listed as XI-165); 0.00^b in the assay with trained panelists [1] (rinse phase 30 seconds (Table 9a), listed as XI-I-65). In the assay with trained panelists [1] (setting [4]), the Tmax is recorded as 32.50^a. The Tstart in the assay on trained panelists [1] (setting [4]) is given as 30.00^a; in the assay with trained panelists [1] (setting [5]) it was 10.00^a. Also, the Rinc in the assay with trained panelists [1] (after expectoration for 15 minutes (Table 9b), listed as XI-I-65) was 0.03^b; with trained panelists [1] (after expectoration for 15 minutes (Table 9b), listed as XI-I-66), “positive and significantly higher compared to that of menthol”; with trained panelists [1] (setting [5]) it was 0.23^a. The “AUC (total area under time-intensity curve)” value in the assay on trained panelists [3] is “not significantly different than menthol”.
